The text below walks through data of US20240217966A1, “PHARMACEUTICAL COMPOSITION CONTAINING GLP-1 RECEPTOR AGONIST HAVING FUSED RING” (Shionogi & Co., Ltd., priority 2021, published 2024).

For this test, the target named is T1, Human GLP-1 receptor (Homo sapiens, UniProt P43220).
T1 construct: expressed in transfected cells
Put plainly: Measurement of GLP-1 receptor agonist activity (cAMP assay). The format is cell-based. As to conditions: for Emax: CHO-K1, hGLP-1R/CHO-K1 cells, read-out: Emax(%); for EC50: cAMP increase, 37° C. 1 hour. The protocol:
Test Example 1: (Measurement of GLP-1 Receptor Agonist Activity)
Human GLP-1 receptor stably expressing cells (hGLP-1R/CHO-K1 cells) are cultured in an α-MEM medium (Sigma) containing 10% FBS (Hyclone), 2% GlutaMAX (Gibco), 1% G418 (Nacalai Tesque), and 1% Penicillin-Streptomycin Mixed Solution (Sigma) at 37° C. under 5% CO2 conditions, and recovered by treating a 10 fold diluted 5.0 g/l-trypsin/5.3 mmol/l-EDTA solution (Nacalai Tesque) and cryopreserved.
A DMSO solution containing the compound of the present invention or human GLP-1 (7-36) (Phoenix Pharmaceuticals) is dispensed into a 384-well microplate (Greiner) at 62.5 nL/well, and in addition, 400 μM Forskolin (Nacalai Tesque) is dispensed therein at 7.5 nL/well. Subsequently, the frozen GLP-1 R/CHO-K1 cells are thawed in a thermostatic bath at 37° C., suspended in HBSS buffer (GIBCO) containing 0.1% BSA (Sigma), 20 mM HEPES (GIBCO), 0.1 mM IBMX (Sigma), and 0.2 mM RO20-1724 (Calbiochem) at 2×10^4 cells/mL, and the cell suspension is added at 6 μL/well. The solution was incubated at 37° C. for 1 hour and intracellular cAMP concentration is measured using cAMP Gs dynamic kit (Cisbio) according to the protocol attached to the product. Specifically, cAMP-d2 and Anti-cAMP-Cryptate are each added in an amount of 3 μL/well, the mixture is incubated at room temperature for 1 hour, and time-resolved fluorescence is measured using PHERAstar (BMG Labtech).
The dilution concentration or the dilution solvent are changed as necessary.
The compounds of the present invention were tested essentially as described above.

Where [1] appears, read: cAMP, 100% = human GLP-1 (7-36) at 2 nM, 0% = DMSO only.

Molecules are shown by their SMILES.

T1 sequence (P43220 24-463): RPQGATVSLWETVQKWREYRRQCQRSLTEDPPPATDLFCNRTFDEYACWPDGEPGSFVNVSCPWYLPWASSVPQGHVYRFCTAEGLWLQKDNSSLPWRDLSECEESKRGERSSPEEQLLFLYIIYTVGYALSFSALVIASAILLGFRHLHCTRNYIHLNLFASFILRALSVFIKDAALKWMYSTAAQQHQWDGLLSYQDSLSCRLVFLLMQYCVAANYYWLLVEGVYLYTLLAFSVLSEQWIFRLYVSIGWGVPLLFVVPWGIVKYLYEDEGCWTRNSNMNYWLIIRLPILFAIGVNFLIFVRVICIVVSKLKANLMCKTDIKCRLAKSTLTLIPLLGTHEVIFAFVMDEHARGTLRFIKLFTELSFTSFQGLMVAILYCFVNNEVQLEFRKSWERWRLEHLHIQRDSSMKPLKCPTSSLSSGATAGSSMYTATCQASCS

Take `COc1ccc(COc2cc3c(cc2C(F)(F)F)CCN(Cc2nc4ccc(C(=O)O)cc4n2C[C@@H]2CCO2)C3)cc1` [Compound I-104]: the Emax under setting [1] was 102%. The compound also returned an EC50 (hGLP-1R/CHO-K1 cells) of 4.78 nM. The like results for `O=C(O)c1ccc2nc(CN3CCc4cc(C(F)(F)F)c(OCc5ccc(F)cc5F)cc4C3)n(C[C@@H]3CCO3)c2c1` [Compound I-106] were, in that order, 101% and 6.88 nM. The like results for `O=C(O)c1ccc2nc(CN3CCc4cc(C(F)(F)F)c(OCc5c(F)cc(F)cc5F)cc4C3)n(C[C@@H]3CCO3)c2c1` [Compound I-107] were, in that order, 101% and 3.5 nM. The like results for `Cc1cc(C(=O)O)cc2c1nc(CN1CCc3cc(C(F)(F)F)c(OCc4ccc(Cl)cc4F)cc3C1)n2C[C@@H]1CCO1` [Compound I-108] were, in that order, 108% and 8.33 nM. `O=C(O)c1ccc2nc(CN3CCc4cc(C(F)(F)F)c(OCc5ccc(Cl)cc5F)nc4C3)n(C[C@@H]3CCO3)c2c1` [Compound I-110]: the maximum response (Emax) under setting [1] came out at 114%. Regarding `C[C@H]1c2cc(OCc3ccc(C#N)cc3)c(C(F)(F)F)cc2CCN1Cc1nc2ccc(C(=O)O)cc2n1C[C@@H]1CCO1` [Compound I-111], under setting [1], the Emax is 126%. For the same compound, the EC50 (hGLP-1R/CHO-K1 cells) was found to be 2.51 nM.

With `C[C@H]1c2cc(OCc3ccc(C#N)cc3)c(C(F)(F)F)cc2CCN1Cc1nc2c(F)cc(C(=O)O)cc2n1C[C@@H]1CCO1` [Compound I-112], the Emax under setting [1] turned out to be 114%. Moreover, where the note is “hGLP-1R/CHO-K1 cells”, the EC50 was 1.1 nM. The like results for `C[C@H]1c2cc(OCc3ccc(C#N)cc3)c(C(F)(F)F)cc2CCN1Cc1nc2ccc(C(=O)O)c(F)c2n1C[C@@H]1CCO1` [Compound I-113] were, in that order, 124% and 1.46 nM. The like results for `C[C@H]1c2cc(OCc3c(F)cc(Cl)cc3F)c(C(F)(F)F)cc2CCN1Cc1nc2ccc(C(=O)O)cc2n1C[C@@H]1CCO1` [Compound I-114] were, in that order, 132% and 0.604 nM. In the case of `C[C@H]1c2cc(OCc3c(F)cc(Cl)cc3F)c(C(F)(F)F)cc2CCN1Cc1nc2ccc(C(=O)O)nc2n1C[C@@H]1CCO1` [Compound I-115], the Emax under setting [1] was determined as 124%. Also, the midpoint of the response (hGLP-1R/CHO-K1 cells), the EC50, lay at 0.538 nM. The like results for `C[C@H]1c2cc(OCc3ccc(Cl)cc3Cl)c(C(F)(F)F)cc2CCN1Cc1nc2ccc(C(=O)O)nc2n1C[C@@H]1CCO1` [Compound I-118] were, in that order, 113% and 0.658 nM. The like results for `COc1cc(C(=O)O)cc2c1nc(CN1CCc3cc(C(F)(F)F)c(OCc4ccc(Cl)cc4F)cc3C1)n2C[C@@H]1CCO1` [Compound I-119] were, in that order, 119% and 0.569 nM. The like results for `O=C(O)c1cc(OC(F)F)c2nc(CN3CCc4cc(C(F)(F)F)c(OCc5ccc(Cl)cc5F)cc4C3)n(C[C@@H]3CCO3)c2c1` [Compound I-120] were, in that order, 103% and 2.43 nM. In the case of `C[C@H]1c2cc(OCc3ccc(F)cc3)c(C(F)(F)F)cc2CCN1Cc1nc2c(F)cc(C(=O)O)cc2n1C[C@@H]1CCO1` [Compound I-121], the Emax under setting [1] came to 119%. The compound also gave an EC50 (hGLP-1R/CHO-K1 cells) of 1.21 nM. The matching figures for `C[C@H]1c2cc(OCc3ccc(F)cc3)c(C(F)(F)F)cc2CCN1Cc1nc2ccc(C(=O)O)c(F)c2n1C[C@@H]1CCO1` [Compound I-122]: 97% and 1.22 nM. The matching figures for `C[C@H]1c2cc(OCc3c(F)cc(F)cc3F)c(C(F)(F)F)cc2CCN1Cc1nc2ccc(C(=O)O)cc2n1C[C@@H]1CCO1` [Compound I-124]: 102% and 1.71 nM. Turning to `C[C@H]1c2cc(OCc3c(F)cc(F)cc3F)c(C(F)(F)F)cc2CCN1Cc1nc2ccc(C(=O)O)c(F)c2n1C[C@@H]1CCO1` [Compound I-126], the Emax under setting [1] was determined as 99.7%. In addition, for the setting “hGLP-1R/CHO-K1 cells, cAMP, 100% = human GLP-1 (7-36) at 2 nM, 0% = DMSO only”, the “Emax(%)” value was determined as 98.7%. For the compound `O=C(O)c1ccc2nc(Cc3cc(F)c4nc(C(F)(F)F)c(OCc5ccc(Cl)cc5F)nc4c3)n(C[C@@H]3CCO3)c2c1` [Compound I-127], the Emax under setting [1] was found to be 111%. The same compound came in with an EC50 (hGLP-1R/CHO-K1 cells) of 1.15 nM. For the compound `O=C(O)c1ccc2nc(Cc3cc4nc(OCc5ccc(Cl)cc5F)c(C(F)(F)F)nc4cc3F)n(C[C@@H]3CCO3)c2c1` [Compound I-128], the Emax under setting [1] was found to be 81.3%. Moreover, the EC50 (hGLP-1R/CHO-K1 cells) amounted to 40.3 nM. The matching figures for `C[C@H]1c2cc(OCc3c(F)cc(Cl)cc3F)c(C(F)(F)F)cc2CCN1Cc1nc2c(F)cc(C(=O)O)cc2n1C[C@@H]1CCO1` [Compound I-129]: 122% and 0.329 nM. The matching figures for `C[C@H]1c2cc(OCc3c(F)cc(Cl)cc3F)c(C(F)(F)F)cc2CCN1Cc1nc2ccc(C(=O)O)c(F)c2n1C[C@@H]1CCO1` [Compound I-130]: 139% and 0.307 nM.

With `Cc1c(Cc2nc3ccc(C(=O)O)cc3n2C[C@@H]2CCO2)ccc2nc(C(F)(F)F)c(OCc3ccc(Cl)cc3F)nc12` [Compound I-132], under setting [1], the Emax came to 105%. This compound also returned an EC50 (hGLP-1R/CHO-K1 cells) of 0.881 nM. The like results for `O=C(O)c1cc(F)c2nc(CN3CCc4cc(C(F)(F)F)c(OCc5ccc(Cl)cc5F)cc4C3)n(C[C@@H]3CCO3)c2c1F` [Compound I-134] were, in that order, 119% and 1.18 nM. The matching figures for `O=C(O)c1ccc2nc(CN3CCc4cc(C(F)(F)F)c(OCc5ccc(C(F)(F)F)cn5)cc4C3)n(C[C@@H]3CCO3)c2c1` [Compound I-135]: 91% and 27.6 nM. `Cc1ccc(COc2cc3c(cc2C(F)(F)F)CCN(Cc2nc4ccc(C(=O)O)cc4n2C[C@@H]2CCO2)C3)nc1` [Compound I-136]: under setting [1], the Emax amounted to 107%. Further, it took 5.73 nM to reach a half-maximal effect (hGLP-1R/CHO-K1 cells) (EC50). Regarding `Cc1csc(COc2cc3c(cc2C(F)(F)F)CCN(Cc2nc4ccc(C(=O)O)cc4n2C[C@@H]2CCO2)C3)n1` [Compound I-137], the Emax under setting [1] was 114%. For the setting “hGLP-1R/CHO-K1 cells”, this compound gave a concentration for a half-maximal effect (EC50) of 5.56 nM. On to `Cc1nc(COc2cc3c(cc2C(F)(F)F)CCN(Cc2nc4ccc(C(=O)O)cc4n2C[C@@H]2CCO2)C3)cs1` [Compound I-138], for which the Emax under setting [1] stood at 94.3%. The response (hGLP-1R/CHO-K1 cells) was half-maximal at 68.8 nM (EC50). The matching figures for `COc1cc(Cl)ccc1COc1cc2c(cc1C(F)(F)F)CCN(Cc1nc3ccc(C(=O)O)cc3n1C[C@@H]1CCO1)C2` [Compound I-139]: 117% and 1.23 nM. The matching figures for `Cc1cc(Cl)ccc1COc1cc2c(cc1C(F)(F)F)CCN(Cc1nc3ccc(C(=O)O)cc3n1C[C@@H]1CCO1)C2` [Compound I-140]: 96% and 18 nM.

As to `O=C(O)c1ccc2nc(CN3CCc4cc(C(F)(F)F)c(OCc5ccc(OC(F)F)c(F)c5)cc4C3)n(C[C@@H]3CCO3)c2c1` [Compound I-143], under setting [1], the Emax worked out at 101%. For the same compound, where the note is “hGLP-1R/CHO-K1 cells”, the EC50 amounted to 25.3 nM. The matching figures for `O=C(O)c1cc(C(F)F)c2nc(CN3CCc4cc(C(F)(F)F)c(OCc5ccc(Cl)cc5F)cc4C3)n(C[C@@H]3CCO3)c2c1` [Compound I-146]: 102% and 40.3 nM. The matching figures for `Cc1cn(C)nc1COc1cc2c(cc1C(F)(F)F)CCN(Cc1nc3ccc(C(=O)O)cc3n1C[C@@H]1CCO1)C2` [Compound I-147]: 88% and 99.3 nM. The matching figures for `CCn1ccc(COc2cc3c(cc2C(F)(F)F)CCN(Cc2nc4ccc(C(=O)O)cc4n2C[C@@H]2CCO2)C3)n1` [Compound I-148]: 95% and 32.5 nM. On to `CC(C)n1ccc(COc2cc3c(cc2C(F)(F)F)CCN(Cc2nc4ccc(C(=O)O)cc4n2C[C@@H]2CCO2)C3)n1` [Compound I-149], for which the maximal response (Emax) under setting [1] is 93.7%. The EC50 (hGLP-1R/CHO-K1 cells) was 101 nM. The like results for `O=C(O)c1ccc2nc(CN3CCc4cc(C(F)(F)F)c(OCc5ccn(C(F)F)n5)cc4C3)n(C[C@@H]3CCO3)c2c1` [Compound I-150] were, in that order, 92% and 18.3 nM. The like results for `O=C(O)c1ccc2nc(CN3CCc4cc(C(F)(F)F)c(OCc5ccn(CC(F)(F)F)n5)cc4C3)n(C[C@@H]3CCO3)c2c1` [Compound I-151] were, in that order, 93.7% and 124 nM. On to `O=C(O)c1ccc2nc(CN3CCc4cc(C(F)(F)F)c(OCc5ccccc5OC(F)F)cc4C3)n(C[C@@H]3CCO3)c2c1` [Compound I-152], for which the Emax under setting [1] was determined as 111%. Under “hGLP-1R/CHO-K1 cells”, this compound showed an EC50 of 5.88 nM. The matching figures for `COc1cc(F)c(COc2cc3c(cc2C(F)(F)F)CCN(Cc2nc4ccc(C(=O)O)cc4n2C[C@@H]2CCO2)C3)c(F)c1` [Compound I-153]: 104% and 5.34 nM. As for `O=C(O)c1ccc2nc(CN3CCc4cc(C(F)(F)F)c(OCc5ccccc5F)cc4C3)n(C[C@@H]3CCO3)c2c1` [Compound I-154], the Emax under setting [1] was 97.7%. Under “hGLP-1R/CHO-K1 cells”, this compound had a 50% effective concentration (EC50) of 38.4 nM. The matching figures for `O=C(O)c1ccc2nc(CN3CCc4cc(C(F)(F)F)c(OCc5c(F)cccc5F)cc4C3)n(C[C@@H]3CCO3)c2c1` [Compound I-155]: 93.7% and 25.9 nM.
